# Results: patent US12187713B2, “Immunomodulators, compositions and methods thereof” (Betta Pharmaceuticals Co., Ltd, priority 2019, dated 2025)
# Target: PD-1/PD-L1 (Homo sapiens (Human), UniProt Q9NZQ7)
# Experiment: PD-1/PD-L1 Binding Assay (Alphascreen)
# Settings: numeric values
# Method in brief: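 PD-1/PD-L1 binding detected by anti-6×His acceptor and streptavidin donor beads after 120 min in the dark at 25 °C. Beforehand, the two proteins were incubated 15 min at 25 °C with inhibitor at 0.015–300 nM (1% DMSO). IC50 comes from a log concentration–response curve.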
# Chain of PD-1/PD-L1 (Q9NZQ7 19-238): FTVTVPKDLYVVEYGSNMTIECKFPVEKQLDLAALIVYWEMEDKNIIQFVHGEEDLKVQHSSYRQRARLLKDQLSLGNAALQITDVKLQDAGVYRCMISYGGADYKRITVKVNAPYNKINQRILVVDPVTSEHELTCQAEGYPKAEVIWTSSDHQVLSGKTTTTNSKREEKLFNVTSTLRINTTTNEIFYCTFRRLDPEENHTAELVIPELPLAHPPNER
row,IC50,SMILES
1,2.3 nM,"Cc1c(-c2nc3c(o2)CCN(CC(=O)O)C3)cccc1-c1cccc(-c2nc3cc(CN4CCC[C@H]4C(=O)O)c(OC(F)F)cc3o2)c1C [Example 184, ((2-(3′-(5-(carboxymethyl)-4,5,6,7-tetrahydrooxazolo[4,5-c]pyridin-2-yl)-2,2′-dimethyl-[1,1′-biphenyl]-3-yl)-6-(difluoromethoxy)benzo[d]oxazol-5-yl)methyl)-L-proline]"
2,0.37 nM,"Cc1c(-c2nc3c(o2)CNC3)cccc1-c1cccc(-c2nc3cc(CN4CCC[C@H]4C(=O)O)c(OC(F)F)cc3o2)c1C [Example 202, ((6-(difluoromethoxy)-2-(3′-(5,6-dihydro-4H-pyrrolo[3,4-d]oxazol-2-yl)-2,2′-dimethyl-[1,1′-biphenyl]-3-yl)benzo[d]oxazol-5-yl)methyl)proline]"
3,1.4 nM,"Cc1c(-c2nc3c(o2)CCN(CCO)C3)cccc1-c1cccc(-c2nc3cc(CN4CCC[C@H]4C(=O)O)c(OC(F)F)cc3o2)c1C [Example 206, ((6-(difluoromethoxy)-2-(3′-(5-(2-hydroxyethyl)-4,5,6,7-tetrahydrooxazolo[4,5-c]pyridin-2-yl)-2,2′-dimethyl-[1,1′-biphenyl]-3-yl)benzo[d]oxazol-5-yl)methyl)-L-proline]"
4,114 nM,"Cc1c(COc2cc(OCc3cncc(OC(F)F)c3)c(CN3CC[C@@H](O)C3)cc2Cl)cccc1-c1cccc(-c2nc3cc(CN4CCC[C@H]4C(=O)O)c(OC(F)F)cc3o2)c1C [Example 208, ((2-(3′-((2-chloro-5-((5-(difluoromethoxy)pyridin-3-yl)methoxy)-4-(((R)-3-hydroxypyrrolidin-1-yl)methyl)phenoxy)methyl)-2,2′-dimethyl-[1,1′-biphenyl]-3-yl)-6-(difluoromethoxy)benzo[d]oxazol-5-yl)methyl)-L-proline]"
5,8.4 nM,"COc1nc(OCc2cccc(-c3cccc(-c4nc5cc(CN6CCC[C@H]6C(=O)O)c(OC(F)F)cc5o4)c3C)c2C)nc(OC)c1CN1CCCC1 [Example 212, ((6-(difluoromethoxy)-2-(3′-(((4,6-dimethoxy-5-(pyrrolidin-1-ylmethyl)pyrimidin-2-yl)oxy)methyl)-2,2′-dimethyl-[1,1′-biphenyl]-3-yl)benzo[d]oxazol-5-yl)methyl)-L-proline]"

# Same assay, conditions: range symbols
row,SMILES,IC50
1,"Cc1c(Nc2nccc3cc(CN4CCC(O)C4)cnc23)cccc1-c1cccc(-c2nc3cc(CN4CC[C@H](C(=O)O)C4)c(OC(F)F)cc3o2)c1C (stereo partly drawn) [Example 180, (3S)-1-((6-(difluoromethoxy)-2-(3′-((3-((3-hydroxypyrrolidin-1-yl)methyl)-1,7-naphthyridin-8-yl)amino)-2,2′-dimethyl-[1,1′-biphenyl]-3-yl)benzo[d]oxazol-5-yl)methyl)pyrrolidine-3-carboxylic acid]",0.1 to 5 nM
2,"Cc1c(Nc2nccc3cc(CN4CCC(O)C4)cnc23)cccc1-c1cccc(-c2nc3cc(CN4CCC[C@@H]4C(=O)O)c(OC(F)F)cc3o2)c1C (stereo partly drawn) [Example 182, ((6-(difluoromethoxy)-2-(3′-((3-((3-hydroxypyrrolidin-1-yl)methyl)-1,7-naphthyridin-8-yl)amino)-2,2′-dimethyl-[1,1′-biphenyl]-3-yl)benzo[d]oxazol-5-yl)methyl)-D-proline]",0.1 to 5 nM
3,"Cc1c(Nc2cc(CN3CCCC3)ccn2)cccc1-c1cccc(-c2nc3cc(OC(F)F)c(CN4CCC[C@H]4C(=O)O)cc3o2)c1C [Example 183, ((5-(difluoromethoxy)-2-(2,2′-dimethyl-3′-((4-(pyrrolidin-1-ylmethyl)pyridin-2-yl)amino)-[1,1′-biphenyl]-3-yl)benzo[d]oxazol-6-yl)methyl)-L-proline]",5 to 50 nM
4,"Cc1c(-c2nc3c(o2)CCN(C(C)C(=O)O)C3)cccc1-c1cccc(-c2nc3cc(CN4CCC[C@H]4C(=O)O)c(OC(F)F)cc3o2)c1C (stereo partly drawn) [Example 186, ((2-(3′-(5-(1-carboxyethyl)-4,5,6,7-tetrahydrooxazolo[4,5-c]pyridin-2-yl)-2,2′-dimethyl-[1,1′-biphenyl]-3-yl)-6-(difluoromethoxy)benzo[d]oxazol-5-yl)methyl)-L-proline]",0.1 to 5 nM
5,"Cc1c(-c2nc3c(o2)CCN(CC2CCC(=O)N2)C3)cccc1-c1cccc(-c2nc3cc(CN4CCC[C@H]4C(=O)O)c(OC(F)F)cc3o2)c1C (some centres unmarked) [Example 193, ((6-(difluoromethoxy)-2-(2,2′-dimethyl-3′-(5-((5-oxopyrrolidin-2-yl)methyl)-4,5,6,7-tetrahydrooxazolo[4,5-c]pyridin-2-yl)-[1,1′-biphenyl]-3-yl)benzo[d]oxazol-5-yl)methyl)proline]",5 to 50 nM
6,"Cc1c(-c2nc3c(o2)CCN(Cc2cccnc2)C3)cccc1-c1cccc(-c2nc3cc(CN4CCC[C@H]4C(=O)O)c(OC(F)F)cc3o2)c1C [Example 194, ((6-(difluoromethoxy)-2-(2,2′-dimethyl-3′-(5-(pyridin-3-ylmethyl)-4,5,6,7-tetrahydrooxazolo[4,5-c]pyridin-2-yl)-[1,1′-biphenyl]-3-yl)benzo[d]oxazol-5-yl)methyl)proline]",5 to 50 nM
7,"Cc1c(-c2nc3c(o2)CCN(CCCO)C3)cccc1-c1cccc(-c2nc3cc(CN4CCC[C@H]4C(=O)O)c(OC(F)F)cc3o2)c1C [Example 199, ((6-(difluoromethoxy)-2-(3′-(5-(3-hydroxypropyl)-4,5,6,7-tetrahydrooxazolo[4,5-c]pyridin-2-yl)-2,2′-dimethyl-[1,1′-biphenyl]-3-yl)benzo[d]oxazol-5-yl)methyl)proline]",5 to 50 nM
8,"Cc1c(-c2nc3c(o2)CCN(CCCF)C3)cccc1-c1cccc(-c2nc3cc(CN4CCC[C@H]4C(=O)O)c(OC(F)F)cc3o2)c1C [Example 200, ((6-(difluoromethoxy)-2-(3′-(5-(3-fluoropropyl)-4,5,6,7-tetrahydrooxazolo[4,5-c]pyridin-2-yl)-2,2′-dimethyl-[1,1′-biphenyl]-3-yl)benzo[d]oxazol-5-yl)methyl)proline]",5 to 50 nM
9,Cc1c(COc2cc(OCc3cccc(C#N)c3)c(CN3CCC[C@H]3C(=O)O)cc2Cl)cccc1-c1cccc(-c2nc3cc(CN4CCC[C@H]4C(=O)O)c(OC(F)F)cc3o2)c1C [Example 211],0.1 to 5 nM
10,"COc1nc(OCc2cccc(-c3cccc(-c4nc5cc(CN6CCC[C@H]6C(=O)O)c(OC(F)F)cc5o4)c3C)c2C)nc(OC)c1CN1CC(C)(C)C1 [Example 213, ((6-(difluoromethoxy)-2-(3′-(((5-((3,3-dimethylazetidin-1-yl)methyl)-4,6-dimethoxypyrimidin-2-yl)oxy)methyl)-2,2′-dimethyl-[1,1′-biphenyl]-3-yl)benzo[d]oxazol-5-yl)methyl)-L-proline]",5 to 50 nM

# Next, values leading:
row,IC50,SMILES
1,0.1 to 5 nM,"Cc1c(Nc2nccc3cc(CN4CCC(O)C4)cnc23)cccc1-c1cccc(-c2nc3cc(CN4CC[C@@H](C(=O)O)C4)c(OC(F)F)cc3o2)c1C (stereo partly drawn) [Example 181, (3R)-1-((6-(difluoromethoxy)-2-(3′-((3-((3-hydroxypyrrolidin-1-yl)methyl)-1,7-naphthyridin-8-yl)amino)-2,2′-dimethyl-[1,1′-biphenyl]-3-yl)benzo[d]oxazol-5-yl)methyl)pyrrolidine-3-carboxylic acid]"
2,0.1 to 5 nM,"Cc1c(-c2nc3c(o2)CCN(CCS(C)(=O)=O)C3)cccc1-c1cccc(-c2nc3cc(CN4CCC[C@H]4C(=O)O)c(OC(F)F)cc3o2)c1C [Example 185, ((6-(difluoromethoxy)-2-(2,2′-dimethyl-3′-(5-(2-(methylsulfonyl)ethyl)-4,5,6,7-tetrahydrooxazolo[4,5-c]pyridin-2-yl)-[1,1′-biphenyl]-3-yl)benzo[d]oxazol-5-yl)methyl)-L-proline]"
3,0.1 to 5 nM,"Cc1c(-c2nc3c(o2)CCN(CCC(=O)O)C3)cccc1-c1cccc(-c2nc3cc(CN4CCC[C@H]4C(=O)O)c(OC(F)F)cc3o2)c1C [Example 187, ((2-(3′-(5-(2-carboxyethyl)-4,5,6,7-tetrahydrooxazolo[4,5-c]pyridin-2-yl)-2,2′-dimethyl-[1,1′-biphenyl]-3-yl)-6-(difluoromethoxy)benzo[d]oxazol-5-yl)methyl)-L-proline]"
4,0.1 to 5 nM,"Cc1c(-c2nc3c(o2)CN(C)CC3)cccc1-c1cccc(-c2nc3cc(CN4CCC[C@H]4C(=O)O)c(OC(F)F)cc3o2)c1C [Example 188, ((6-(difluoromethoxy)-2-(2,2′-dimethyl-3′-(5-methyl-4,5,6,7-tetrahydrooxazolo[5,4-c]pyridin-2-yl)-[1,1′-biphenyl]-3-yl)benzo[d]oxazol-5-yl)methyl)-L-proline]"
5,0.1 to 5 nM,"Cc1c(-c2nc3c(o2)CN(CCO)CC3)cccc1-c1cccc(-c2nc3cc(CN4CCC[C@H]4C(=O)O)c(OC(F)F)cc3o2)c1C [Example 189, ((6-(difluoromethoxy)-2-(3′-(5-(2-hydroxyethyl)-4,5,6,7-tetrahydrooxazolo[5,4-c]pyridin-2-yl)-2,2′-dimethyl-[1,1′-biphenyl]-3-yl)benzo[d]oxazol-5-yl)methyl)-L-proline]"
6,5 to 50 nM,"Cc1c(-c2nc3c(o2)CCN(CC(N)=O)C3)cccc1-c1cccc(-c2nc3cc(CN4CCC[C@H]4C(=O)O)c(OC(F)F)cc3o2)c1C [Example 196, ((2-(3′-(5-(2-amino-2-oxoethyl)-4,5,6,7-tetrahydrooxazolo[4,5-c]pyridin-2-yl)-2,2′-dimethyl-[1,1′-biphenyl]-3-yl)-6-(difluoromethoxy)benzo[d]oxazol-5-yl)methyl)proline]"
7,0.1 to 5 nM,CC(=O)NCCNCc1cc(Cl)c(OCc2cccc(-c3cccc(-c4nc5cc(CN6CCC[C@H]6C(=O)O)c(OC(F)F)cc5o4)c3C)c2C)cc1OCc1cccc(C#N)c1 [Example 210]
8,> 50 nM,"Cc1c(Oc2ccc(CNC[C@@H]3CCC(=O)N3)cn2)cccc1-c1cccc(-c2nc3cc(CN4CCC[C@H]4C(=O)O)c(OC(F)F)cc3o2)c1C [Example 214, ((6-(difluoromethoxy)-2-(2,2′-dimethyl-3′-((5-(((((S)-5-oxopyrrolidin-2-yl)methyl)amino)methyl)pyridin-2-yl)oxy)-[1,1′-biphenyl]-3-yl)benzo[d]oxazol-5-yl)methyl)-L-proline]"
